In patent publication US10343903B2, “Cationic polymer coated mesoporous silica nanoparticles and uses thereof” (The Regents of the University of California, priority 2010, dated 2019):

What was measured:
KB-V1 cells [1] = experiment: MTS cytotoxicity of free Dox, KB-V1; format: cell-based; settings: 72 hrs
Description: (§1) KB-31 and KB-V1 cells were plated at 1×10^4 cells per well in 96 well plate. The cells were treated with free Dox in solution in doses ranging from 0.05-3.2 μg/ml (KB-31) and 0.1-64 μg/ml (KB-V1) for 72 hrs. The cell viability was determined by the MTS assay. The treated cells were incubated with MTS working solution for 2-3 hrs before measurement. The mean absorbance of non-exposed cells served as the reference value for calculating 100% cellular viability. To view Pgp expression, the cells were washed in PBS and the pellets lysed in a buffer containing Triton X-100 and protease inhibitors after centrifugation. The protein content of the supernatants was determined by the Bradford method. 100 μg total protein was electrophoresed by 10% SOS-PAGE and transferred to a PVDF membrane. After blocking, the membranes were incubated with 1:1000 dilution of primary monoclonal antibody to MDR1 (anti-Pgp C219, Abeam). The membranes were overlayed with goat anti-mouse secondary antibody (1:1000 dilution) before the addition of the HRP-conjugated streptavidin-biotin complex. The proteins were detected using ECL reagent according to the manufacturer's instructions.

KB-31 tumor xenograft [2] = experiment: Tumor growth inhibition by doxorubicin-loaded NP3; format: in vivo, nude mice; settings: 4 mg/kg doxorubicin i.v. weekly for 3 weeks, tumor weight at sacrifice
Description: Athymic BALB/c nu/nu female mice (6 weeks) were purchased from the Charles River Laboratory, and maintained under pathogen-free conditions. All animal experiments were performed using protocols approved by the UCLA Animal Research Committee. The tumor cell suspension (0.1 ml, 5×10^6 cells/mL) was injected subcutaneously into the mice. To perform imaging, the tumor-bearing animals were used 2.5 weeks after tumor implantation. In the tumor growth inhibition experiments, the nude mice were randomly divided into 4 groups and received the listed range of treatments, which commenced 1 week after tumor implantation.
Nude mouse studies to determine the effect of doxorubicin-loaded NP3 on tumor shrinkage. One week after tumor implantation, the KB-31 tumor-bearing mice were randomly divided into four groups of five animals each. These groups were used for comparing the effects of saline, empty nanoparticles, free doxorubicin, and doxorubicin-loaded NP3, respectively. The latter group received intravenous administration of 120 mg/kg (˜2.4 mg per animal) NP3, which is equivalent to a doxorubicin dose of 4 mg/kg (˜0.08 mg per animal), weekly for 3 weeks. […] The body weight and tumor size were accurately recorded twice per week. Tumor weight was calculated according to the formula: Tumor weight (mg)=(length in mm)× (width in mm)^2/2 (Meng et al., ACS Nano, vol. 4, pp. 2773-2783, 2010).

[3] = Blood biochemistry to assess possible toxicity (Example 8); format: in vivo; settings: serum, tumor-bearing nude mice, weekly i.v. for 3 weeks, day 21
Description: (§2) Nude mouse studies to determine the effect of doxorubicin-loaded NP3 on tumor shrinkage. One week after tumor implantation, the KB-31 tumor-bearing mice were randomly divided into four groups of five animals each. These groups were used for comparing the effects of saline, empty nanoparticles, free doxorubicin, and doxorubicin-loaded NP3, respectively. The latter group received intravenous administration of 120 mg/kg (˜2.4 mg per animal) NP3, which is equivalent to a doxorubicin dose of 4 mg/kg (˜0.08 mg per animal), weekly for 3 weeks. The free doxorubicin group received the same drug dose weekly for 3 weeks, while the group receiving empty NP3 was treated with 120 mg/kg on a weekly basis. The fourth group was treated with saline as control. The body weight and tumor size were accurately recorded twice per week. Tumor weight was calculated according to the formula: Tumor weight (mg)=(length in mm)× (width in mm)^2/2 (Meng et al., ACS Nano, vol. 4, pp. 2773-2783, 2010).
Following the animal experiments described above, the mice were sacrificed on 21st day and serum collected by centrifuging the whole blood at 5,000 rpm for 15 min. The biochemical parameters, including cholesterol (CHOL), triglycerides (TRG), alanine aminotransferase (ALT), aspartate aminotransferase (AST), total bilirubin (TBILI), glucose (GLU), inorganic phosphorus (PHOS), total protein (TPR), calcium (CAL), blood urea nitrogen (BUN), creatinine (CRE), and albumin (ALB) were assayed by UCLA Division of Laboratory Animal Medicine (DLAM) diagnostic laboratory services.

KB-31 tumor xenograft [4] = experiment: TUNEL staining of the tumor tissue; format: in vivo, nude mice; settings: 4 mg/kg doxorubicin i.v. weekly for 3 weeks
Description: A section of the tumor from each animal was used for TUNEL staining. The slides containing the tumor section were washed, fixed, and permeabilized before performance of TUNEL staining according to the manufacturer's instructions (Invitrogen, Carlsbad, Calif.). Nuclei were stained by Hoechst 33342 dye. The number of TUNEL positive cells (green staining) was assessed under a fluorescent microscope (200×). The same sections were also used for recording of the red fluorescent images of the doxorubicin that was present in the particles or the tissues. At least three fields were counted by the same investigator to calculate the percentage of TUNEL positive cells.

[5] = Body weight and major organ histology (Example 8); format: in vivo, nude mice; settings: weekly i.v. for 3 weeks
Description: as §2
Appropriate size sections of the tumor, liver, kidney, spleen, lung, heart, and brain were fixed in 10% formalin and then embedded into paraffin. Tissue sections of 4 μm thickness were mounted on glass slides by the UCLA Division of Laboratory Animal Medicine (DLAM) diagnostic laboratory services. The sections were stained with hematoxylin-eosin (H&E) and examined by light microscopy. The slides were read by an experienced veterinary pathologist.

KB-31 cells = experiment: MTS cytotoxicity of free Dox, KB-31; format: cell-based; settings: KB-31, free Dox, 72 hrs
Description: as §1

[6] = cited from earlier work
KB-V1 cells [7] = experiment: Cytotoxicity of Dox formulations in KB-V1 cells (MTS, 72 hrs); format: cell-based; settings: KB-V1, Tariquidar 50 nM
Description: To measure cytotoxicity of the different Dox formulations, KB-V1 cells were treated with free Dox, Dox-MSNP, PEI-Dox-MSNP and siRNA-PEI-Dox-MSNP, respectively. For the latter two particle types, incubation time was for 16 hrs before replenishment of the old medium with fresh complete DMEM and performance of a MTS assay at 72 hrs. Based on the absorption readout at 490 nm, the IC50 of free and Dox-loaded MSNP were calculated. The induction of apoptosis at 72 hours was assessed through the use of Annexin V-SYTOX Blue. Briefly, 5×10^5 cells were harvested and stained by FITC-Annexin V-SYTOX Blue working solution (Annexin V, Trevigen; SYTOX Blue, Invitrogen) at room temperature for 15 min. The cells were washed in binding buffer before performance of flow cytometry (Becton Dickinson, Mountain View, Calif.). Date analysis was performed by BD CellQuest. To confirm the flow data in which there may be a minor overlap of Dox with FITC-Annexin V, a TUNEL detection kit was used according to the manufacturer's instructions to confirm the induction of apoptosis. Briefly, 72 hrs following treatment with free Dox or Dox loaded particles, cells were washed, fixed, and permeabilized before TUNEL staining. The number of TUNEL-positive cells was assessed under a fluorescent microscope (200×). At least 3 fields were counted by the same investigator to calculate the percentage of TUNEL positive cells.

Compound: COc1cccc2c1C(=O)c1c(O)c3c(c(O)c1C2=O)C[C@@](O)(C(=O)CO)C[C@@H]3O[C@H]1C[C@H](N)[C@H](O)[C@H](C)O1.Cl [Free Dox, doxorubicin hydrochloride]
- IC50 (MTS) (KB-V1 cells [1]): 53.0 µg/mL
- tumor inhibition (KB-31 tumor xenograft [2]): 70%
- ALB [3]: 2.4 ± 0.2 g/dL
- ALT [3]: 36.8 ± 8.0 u/L
- AST [3]: 347.8 ± 73.9 U/L
- BUN [3]: 17.3 ± 2.6 mg/dL
- CAL [3]: 9.0 ± 0.5 mg/dL
- CHOL [3]: 97.8 ± 12.8 mg/dL
- CRE [3]: 0.3 ± 0.1 mg/dL
- GLU [3]: 102.5 ± 29.2 mg/dL
- PHOS [3]: 9.5 ± 0.8 mg/dL
- TBIL [3]: 0.4 ± 0.0 mg/dL
- TPR [3]: 5.0 ± 0.4 g/dL
- TRG [3]: 91.5 ± 21.2 mg/dL
- TUNEL-positive cells in tumor tissue (KB-31 tumor xenograft [4]): ~13%
- kidney histology ([5]; H&E): glomerular swelling
- liver histology ([5]; H&E): prominent hepatic steatosis
- body weight ([5]; compared to saline): cyclical decrease in body weight
- IC50 (MTS) (KB-31 cells): 0.21 µg/mL
- pKa [6]: 8.2

Compound: CCOc1ccc(-c2nc3ccc(-c4nc5ccc(N6CCN(C)CC6)cc5[nH]4)cc3[nH]2)cc1 [Hoechst 33342]
- pKa [6]: 11.9

Compound: COc1cc2c(cc1OC)CN(CCc1ccc(NC(=O)c3cc(OC)c(OC)cc3NC(=O)c3cnc4ccccc4c3)cc1)CC2 [Tariquidar]
- effect of co-administration with free Dox on drug sensitivity (KB-V1 cells [7]): partially restores drug sensitivity
